Measured values as given in patent publication US11827663B2, “Use of UAP inhibitors to inhibit flux through the hexosamine biosynthetic pathway” (The Johns Hopkins University, priority 2014, dated 2023).
“Also recorded” adds a separate entry of the source.

Columns and labels:
Type in all cases: cell-based
global DNA methylation = experiment: Global DNA methylation assay in SW1990 cells
Method: In 6-well plates, SW1990 cells were seeded (3×10^5) and were treated with Ac4Glc2Bz at the indicated concentrations. DNA from treated cells was isolated using a FitAmp Blood and Cultured Cell DNA Extraction Kit (Epigentek) followed by colormetric determination of global methylation using a MethylFlash™ Methylated DNA Quantification Kit (Epigentek). […] For instance, by reducing flux through the HBP, UAP inhibitors could exert epigenetic effects, as global DNA methylation was increased as shown in FIG. 23. Although hypermethylation of promoter sites of tumor suppressors might be common in cancer at a global scale, cancer cells are almost always characterized by hypomethylation, which the current UAP inhibitors appeared to be reversing (Epigenomics. 2009 December; 1(2): 239-259; Oncogene. 12 Aug. 2002, Volume 21, Number 35, Pages 5400-5413).

microRNA = experiment: qRT-PCR analysis of microRNA expression; conditions: SW1990 and 612 cells, 48 h
Method: FIGS. 20A-20C show qRT-PCR analysis of microRNA expression following treatment with different concentrations of Ac4Glc2Bz, for SW1990 cells of […] (FIG. 20A); for 612 cells of 191b-5p (FIG. 20B); and for SW1990 cells of 181p-5p (FIG. 20C).
The microRNAs analyzed were chosen because they regulated different aspects of cancer cell glycosylation. 3×10^5 cells per well in a 6-well plate were seeded along with the concentrations of Ac4Glc2Bz indicated. Glioblastoma cells were placed on 6-well plates precoated with laminin (1 ug/cm^2). After 48 h, miRNA was extracted using a miRNeasy kit (Qiagen), followed by cDNA synthesis and qrt-PCR using miRCURY LNA™ Universal RT microRNA PCR Starter Kit (Exiqon).

[1] = tested on: primary glioblastoma cell line 612; experiment: Cell count of primary glioblastoma line 612
Method: FIG. 7A depicts the results of primary glioblastoma lines 612 and GS1049 after incubation for 48 h with Ac4Glc2Bz followed by cell counting and normalization to untreated controls. The data is log transformed to easily determine IC50 values. FIG. 7B and FIG. 7C depict the measurement of proliferation of the primary glioblastoma lines after 48 h incubation with Ac4Glc2Bz using a MTT assay.
Furthermore, cell morphologies were grossly altered as concentrations of Ac4Glc2Bz were increased, which likely indicated severe metabolic stress, induction of apoptosis, and possibly altered adhesion.
Cells were incubated at a range of concentrations of the UAP inhibitors (typically at 0, 10, 25, 50, 100, and 150 μM) and the number of cells were quantified, typically by automated counting (e.g., with a Coulter Counter Z2 instrument) after 1, 2, 3, or 5 days of exposure.

[2] = tested on: UDP-Glc/GalNAc (HexNAc), product of UAP1/2; experiment: Targeted metabolomics, LC-MS/MS of UDP-HexNAc in 612 cells
Method: FIGS. 16A-16B show exemplary targeted metabolomics results from primary glioblastoma cells. […] (n=3, with error bars representing SEM;* indicates p<0.05)
In FIGS. 16A-16B, representative targeted metabolomics results from primary glioblastoma cells were quantitated using LC-MS/MS traces. For example, the 612 cells were treated with 50 μM or 100 μM of Ac4Glc2Bz or non-treated (control). Afterwards, the cell extracts were obtained using Bligh-Dyer extraction and the extracts were analyzed using LC-MS/MS. Twelve 150-mm tissue culture plates were coated with lamin (1 ug/cm^2) in PBS for 24 h. 5×10^6 612 cells were seed onto each plate in 20 mL of media for condition tested: DMSO vehicle control (2 plates) (matched to the volume of vehicle used for the 100 μM condition), 50 μM (4 plates), 100 μM (6 plates). Ater 48 h, the plates were cooled for 10 minutes on ice followed by aspiration of the media. The plates were then tilted at 30° for 30 seconds and any remaining media was removed. Plates were washed twice with 10 mL of ice cold PBS (calcium and magnesium ion free). Next, the plates were covered and chilled with dry ice for 10 minutes to completely freeze all of the cells. While freezing the cells, a solution of methanol:H2O (2:0.8) was made and chilled in an isopropyl alcohol-dry ice bath. The plates were transferred to wet ice and 500 μL of the MeOH:H2O solution was added to the plates. Cells were scraped and the were transferred to a 15 mL tube. 500 μL more of the methanol:H2O solution was added again, and any remaining cells were scraped off the plates and were transferred to the 15 mL tubes. Samples, while remaining cold, were sonicated 2-5 times for 1 s and 1 part of chloroform was added to produce a ration of 1:2:0.8 (CHCl3:MeOH:H2O). Samples were briefly vortexed while still cold and 1 part of H2O was added followed by vortexing. […] DNA quantity from the interphase disc was determined using a fluorescent assay (SIGMA). […] The aqeuous layers were combined after normazling reconstitutions to the quantities of DNA obtained for each condition tested. […]

c-MYC = experiment: Western blot of c-MYC; conditions: SW1990, PANC-1, 612 and GS1049 cells, 125 μM or 250 μM
Method: Proteins from treated cells were obtained by lysing cells in RIPA buffer (SIGMA) supplemented with Protease Inhibitor Cocktail (1:100), Phosphatase Inhibitor Cocktail 2 (SIGMA) (1:100), and Phosphatase Inhibitor Cocktail 3 (SIGMA)(1:100). SDS-PAGE was performed followed by western blotting for c-MYC (Cell Signaling) and β-actin (SIGMA).

CC(=O)OCC1OC(OC(C)=O)[C@@H](NC(=O)c2ccccc2)[C@@H](OC(C)=O)[C@@H]1OC(C)=O (some centres unmarked) [Ac4Glc2Bz]
global DNA methylation (global DNA methylation): promote global DNA methylation at higher doses | microRNA expression (microRNA): could be modulated | cell densities under a microscope ([1]; 612 cells treated for 48 hours, FIG. 11): striking reduction in cell densities in a dose dependent manner | IC50 ([1]; 48 h incubation, cell counting normalized to untreated controls, read-out: Estimated IC50 values, 612): 36.2 ± 1.1 µM | LC-MS/MS peaks for UDP-HexNAc in treated cell extracts ([2]; 612 cells, 50 μM or 100 μM, 48 h): substantially lower | reduction of quantitized amount of UDP-HexNAc, particularly UDP-GlcNAc, vs non-treated cell ([2]; 612 cells, 50 μM, 48 h): ~4 fold | residual level of UDP-GlcNAc ([2]; printed as shown in FIGS. 18A-18B): about 25% | c-MYC expression (c-MYC): reduce c-MYC expression in a dose-dependent manner; also recorded: altered
